# Reference: patent publication US10100047B2, “Piperidine derivatives as orexin receptor antagonist” (SHANGHAI HAIYAN PHARMACEUTICAL TECHNOLOGY CO., LTD., priority 2014, dated 2018)
# Where two headings read alike, the source gives them in different places.
# Experiments:
# [1] = target: T1, hOX1R (Homo sapiens, UniProt O43613); assay: In vitro test of OX1R: calcium signal change in cells detected with FLIPR; type: cell-based; conditions: HEK293-OX1 stable cell strain, Fluo-4 AM calcium signal, Orexin A at EC70
# T1 construct: expressed in transfected cells
# T1 sequence (O43613 1-425): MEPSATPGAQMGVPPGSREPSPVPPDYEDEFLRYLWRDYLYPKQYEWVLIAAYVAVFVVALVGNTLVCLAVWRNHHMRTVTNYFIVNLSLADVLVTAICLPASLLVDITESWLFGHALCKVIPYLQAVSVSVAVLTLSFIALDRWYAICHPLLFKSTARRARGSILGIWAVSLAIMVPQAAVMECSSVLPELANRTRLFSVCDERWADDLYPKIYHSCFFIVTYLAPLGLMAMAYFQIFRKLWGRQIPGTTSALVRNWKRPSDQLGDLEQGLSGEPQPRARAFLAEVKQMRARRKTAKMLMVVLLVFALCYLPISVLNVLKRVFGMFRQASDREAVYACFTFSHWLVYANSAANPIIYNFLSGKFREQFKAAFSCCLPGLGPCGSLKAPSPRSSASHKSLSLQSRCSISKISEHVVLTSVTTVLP
# Procedure: (§1) The inhibitive effect of a compound on OX1 and OX2 GPCR receptor was evaluated by detecting calcium signal change in cells with FLIPR, and IC50 value of compound was used as an indication.
# (§2) Experimental Materials: • Cell line: HEK293-OX1 and OX2 stable cell strain • HEK293-OX1 cell culture media (DMEM, Invitrogen#11960-044, 10% serum Gibco#10099141, L-Glutamine 1×, Gibco#25030, sodium pyruvate 1×, Gibco #11360, Geneticin 300 μg/ml, Gibco #10131). • HEK293-OX2 cell culture media (DMEM, Invitrogen#11960-044, 10% serum Gibco#10099141, L-Glutamine 1×, Gibco#25030, sodium pyruvate 1×, Gibco #11360, Geneticin 300 μg/ml, Gibco #10131, Blasticin 2 μg/ml, Invitrogen # R21001). • Pancreatic enzyme (Invitrogen, #25200-072) • DPBS (Hyclone, #SH30028.01B) • Fluo-4 AM, Invitrogen# F14202 • F-127, Invitrogen # P3000MP • Probenecid, Sigma # P8761 • 384-well cell plate, Greiner #781946 • 384-well compound plate, Greiner #781280 • CO2 incubator, Thermo#371 • Centrifuge, Eppendorf #5810R • Vi-cell cytometry, Beckman Coulter • POD 810 Plate Assembler Automatic microplate pretreatment system • Labcyte FLIPR, Molecular Device.
# (§3) a) cell inoculation (HEK293-OX1 and HEK293-OX2 cells) • 1) The medium trypsin, and DPBS were preheated at 37° C. under water bath. Culture medium of cells was sucked and cells were washed with 10 mL DPBS. • 2) The preheated trypsin was added into the culture bottle which was rotated so that trypsin uniformly covered the bottle. It was placed in an incubator (37° C., 5% CO2) to digest for 1-2 minutes; • 3) Each T150 was suspended with 10-15 mL of culture medium, and centrifuged at 800 rpm for 5 minutes. Cells were resuspended with 10 mL medium, and 1 mL of the cell re-suspension was sucked out and counted with Vi-cell cytometry. • 4) The OX1 cells were diluted with culture medium to 5×10^5 cells/mL, and OX2 cells were diluted to 4×10^5 cells/mL. The diluted cells were added into 384 plate (Greiner. 781946) with multichannel pipettes (50 μL/hole, OX1 cells: 25000 cells/hole; and OX2 cells: 20000 cells/hole). The cell plate was placed in an incubator (37° C., 5% CO2) overnight.
# (§4) b) loading of the compound: • 1) DMSO was used to dilute the compound into 20 mM by using 3-fold dilution. 8 gradients in duplicate wells were used. Echo liquid handler was used to add the compound into a compound plate. Then 20 μL buffer was added to ensure that the final DMSO concentration was 0.1%.
# (§5) c) FLIPR Experiment: • 1) The cell culture medium in 384-well plate was washed away with a vacuum pump. 30 μL fluorescent dye Fluo4AM was added. […] 8 gradients in duplicate wells were used. Then the DMSO plate was prepared and the DMSO concentration was 0.5%. The cell plate, Orexin A plate, and DMSO plate were placed into FLIPR respectively, and the fluorescence values were read. • 3) EC70 value was calculated based on EC50 value of Orexin A. 5×EC70 solution was prepared and added into a 384-well compound plate with multichannel pipettes. The plate was placed on ice for preservation. • 4) In the FLIPR, the compound plate, 5×EC70 plate, cell plate and FLIPR tips were placed respectively. The program was run and the fluorescence values were read.
# (§6) d) Data Analysis: Prism5.0 was used to analysis the data, and the IC50 value of the compound was calculated.
# [2] = target: T2, hOX2R (Homo sapiens, UniProt O43614); assay: In vitro test of OX2R: calcium signal change in cells detected with FLIPR; type: cell-based; conditions: HEK293-OX2 stable cell strain, Fluo-4 AM calcium signal, Orexin A at EC70
# T2 construct: expressed in transfected cells
# T2 sequence (O43614 1-444): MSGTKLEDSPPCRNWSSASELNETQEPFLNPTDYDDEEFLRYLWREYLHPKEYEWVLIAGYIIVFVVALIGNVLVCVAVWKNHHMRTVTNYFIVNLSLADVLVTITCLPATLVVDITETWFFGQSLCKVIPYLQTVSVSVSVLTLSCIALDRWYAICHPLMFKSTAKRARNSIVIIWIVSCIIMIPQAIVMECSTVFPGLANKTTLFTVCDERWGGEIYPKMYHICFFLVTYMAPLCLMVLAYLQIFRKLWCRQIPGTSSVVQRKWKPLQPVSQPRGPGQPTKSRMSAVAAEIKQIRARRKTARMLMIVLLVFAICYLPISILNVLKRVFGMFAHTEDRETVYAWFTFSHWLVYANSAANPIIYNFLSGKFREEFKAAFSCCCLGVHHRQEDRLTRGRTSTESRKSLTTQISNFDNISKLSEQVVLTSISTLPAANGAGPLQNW
# Procedure: as §1, §2, §3, §4, §5, §6
# [3] = read-out: IC50 detected in FLIPR, hOX1R
# [4] = read-out: IC50 detected in FLIPR, hOX2R
SMILES,"IC50 [1, 3] [nM]","IC50 [2, 4] [nM]","IC50 ([1]; IC50 detected in FLIPR, hOX1R) [nM]","IC50 ([2]; IC50 detected in FLIPR, hOX2R) [nM]"
"Cc1ccc(-c2ncccn2)c(C(=O)N2C3CCC(COc4ccc(F)cn4)C2CC3)c1 (single isomer, unassigned) [Example 8]",4260,4610,,
"Cc1ccc(-c2ncccn2)c(C(=O)N2C3CCC(COc4ccc(F)cn4)C2CC3)c1 (single isomer, unassigned) [Example 7]",1270,291,,
Cc1ccc(-c2ccccc2)c(C(=O)N2C3CC[C@H]2CC[C@@H]3COc2ccc(F)cn2)c1 [Example 12],,,219,206
Cc1ccc(-c2ncccn2)c(C(=O)N2C3CCC2C(F)(COc2ccc(F)cn2)CC3)c1 (stereo not shown) [Example 26],48,37,,
O=C(c1cc(F)ccc1-c1ncccn1)N1C2CC[C@H]1CC[C@@H]2COc1ccc(F)cn1 [Example 17],43,47,,
O=C(c1cc(F)ccc1-n1nccn1)N1C2CC[C@H]1CC[C@@H]2COc1ccc(F)cn1 [Example 14],,,16,20
"Cc1ccc(-c2ncccn2)c(C(=O)N2C[C@H](COc3ccc(F)cn3)CC[C@H]2C)c1 [MK6096, reference compound]",36,29,,
O=C(c1c(F)cccc1-n1nccn1)N1C2CC[C@H]1CC[C@@H]2COc1ccc(F)cn1 [Example 9],,,24,15
Cc1ccc(-c2ncccn2)c(C(=O)N2C3CC[C@H]2CC[C@@H]3COc2cccnc2)c1 [Example 31],,,305,221
Cc1cccc(S(=O)(=O)N2C3CC[C@H]2CC[C@@H]3COc2ccc(F)cn2)c1 [Example 22],,,2420,1370
Cc1ccc(OCC2CCC3CCC2N3C(=O)c2cc(C)ccc2-c2ncccn2)nc1 (stereo not shown) [Example 24],,,56,87
Cc1ccc(-c2ncccn2)c(C(=O)N2C3CC[C@H]2CC[C@@H]3COc2ccncc2)c1 [Example 32],7,6,,
Cc1nc(C(=O)N2C3CC[C@H]2CC[C@@H]3COc2ccc(F)cn2)c(-c2ccccc2)s1 [Example 10],,,29,73
Cc1ccc(-c2ncccn2)c(C(=O)N2C3CCC(C(=O)Nc4ccccc4O)C2CC3)c1 (stereo not shown) [Example 27],,,3000,3000
Cc1ccc(-c2ncccn2)c(C(=O)N2C3CC[C@H](COc4ccc(F)cn4)[C@@H]2CC3)c1 [Example 6],2550,4190,,
Cc1cccc(C(=O)N2C3CC[C@H]2CC[C@@H]3COc2ccc(F)cn2)c1 [Example 21],567,741,,
Cc1ccc(-c2ncccn2)c(C(=O)N2C3CCC(c4nc5ccccc5o4)C2CC3)c1 (stereo not shown) [Example 28],,,34,23
"Cc1ccc(-n2nccn2)c(C(=O)N2C3CCC(COc4ccc(F)cn4)C2CC3)c1 (single isomer, unassigned) [Example 4]",217,195,,

SMILES,"IC50 [1, 3] [nM]","IC50 [2, 4] [nM]","IC50 ([1]; IC50 detected in FLIPR, hOX1R) [nM]","IC50 ([2]; IC50 detected in FLIPR, hOX2R) [nM]"
Cc1ccc(-n2cccn2)c(C(=O)N2C3CC[C@H]2CC[C@@H]3COc2ccc(F)cn2)c1 [Example 20],,,7,26
O=C(c1cc(Cl)ccc1-c1ncccn1)N1C2CC[C@H]1CC[C@@H]2COc1ccc(F)cn1 [Example 18],,,127,904
Cc1ccc(-c2cccnc2)c(C(=O)N2C3CCC2[C@@H](COc2ccc(F)cn2)CC3)c1 (stereo partly shown) [Example 33],,,10,24
O=C(c1cc(Cl)ccc1-n1nccn1)N1C2CC[C@H]1CC[C@@H]2COc1ccc(F)cn1 [Example 16],,,56,440
O=C(c1cc(C(F)(F)F)ccc1-c1ncccn1)N1C2CC[C@H]1CC[C@@H]2COc1ccc(F)cn1 [Example 35],,,2070,1420
Cc1ccc(-c2ncccn2)c(C(=O)N2C3CCC2[C@@H](COc2ccccn2)CC3)c1 (stereo partly shown) [Example 23],,,45,97
"Cc1ccc(-n2nccn2)c(C(=O)N2C3CCC(COc4ccc(F)cn4)C2CC3)c1 (single isomer, unassigned) [Example 3]",2070,1420,,
Cc1ccc(-c2ncccn2)c(C(=O)N2C3CCC(COc4ncc(Cl)cc4F)C2CC3)c1 (stereo not shown) [Example 25],113,124,,
Cc1ccc(C)c(C(=O)N2C3CC[C@H]2CC[C@@H]3OCc2ccc(F)cn2)c1 [Example 36],217,195,,
Cc1ccc(-c2ccccn2)c(C(=O)N2C3CC[C@H]2CC[C@@H]3COc2ccc(F)cn2)c1 [Example 11],321,363,,
Cc1ccc(-c2cncnc2)c(C(=O)N2C3CCC2[C@@H](COc2ccc(F)cn2)CC3)c1 (stereo partly shown) [Example 34],,,2300,2510
Cc1ccc(-c2ncccn2)c(C(=O)N2C3CC[C@H]2CC[C@@H]3COc2ccc(F)cc2F)c1 [Example 30],,,489,262
O=C(c1cc(Cl)ccc1-n1ccnn1)N1C2CC[C@H]1CC[C@@H]2COc1ccc(F)cn1 [Example 19],41,372,,
Cc1ccc(-c2ccncc2)c(C(=O)N2C3CC[C@H]2CC[C@@H]3COc2ccc(F)cn2)c1 [Example 13],,,47,663
O=C(c1ccc(F)cc1-n1nccn1)N1C2CC[C@H]1CC[C@@H]2COc1ccc(F)cn1 [Example 15],,,37,55
Cc1ccc(-c2nccs2)c(C(=O)N2C3CC[C@H]2CC[C@@H]3OCc2ccc(F)cn2)c1 [Example 37],,,20,36
Cc1ccc(-c2ncccn2)c(C(=O)N2C3CC[C@H]2CC[C@@H]3COc2ccc(F)cc2)c1 [Example 29],68,121,,
